These results are taken from article PMC9848257, “Design and synthesis of novel rigid dibenzo[b,f]azepines through ring closure technique as promising anticancer candidates against leukaemia and acting as selective topoisomerase II inhibitors and DNA intercalators” (Journal of Enzyme Inhibition and Medicinal Chemistry, 2023).

One may read the inhibition as the drop in the measured response relative to a control, in per cent.

Type in all cases: cell-based
In one assay the test system is HL-60(TB). Put plainly: NCI-60 one-dose screen, HL-60(TB). The conditions noted are these: Homo sapiens, leukaemia, single dose 10 μM, read-out: Growth inhibition %. The procedure:
(§1) Anti-proliferative effects of the counterparts 4a–g and 5a–g were screened against 60 human cancer cell lines, following the Developmental Therapeutics Program protocol, National Cancer Institute[35].
(§2) The anti-tumour activity of the fourteen synthesised congeners was investigated at the NCI against a panel of 60 cancer cell lines (NCI-60 Cell One-Dose Screen). The tested dibenzo[b,f]azepine derivatives were screened at a single dose level (10 μM), Table 1.

The subject of the next assay is A549-ATCC. Briefly: NCI-60 one-dose screen, A549-ATCC. The conditions noted are these: Homo sapiens, non-small cell lung cancer, single dose 10 μM, read-out: Growth inhibition %. The procedure: as §1, §2
The next assay relates to NCI-H226. Put plainly: NCI-60 one-dose screen, NCI-H226. The conditions noted are these: Homo sapiens; NCI-H226, non-small cell lung cancer; single dose 10 μM; read-out: Growth inhibition %. How it is done: as §1, §2
The next assay has as its system NCI-H23. Put plainly: NCI-60 one-dose screen, NCI-H23. The conditions noted are these: Homo sapiens; NCI-H23, non-small cell lung cancer; single dose 10 μM; read-out: Growth inhibition %. How it is done:
as §1, §2

The next assay concerns NCI-H460. Briefly: NCI-60 one-dose screen, NCI-H460. The settings on record: Homo sapiens; NCI-H460, non-small cell lung cancer; single dose 10 μM; read-out: Growth inhibition %. The procedure:
as §1, §2

For a further assay, the system named is COLO 205. Put plainly: NCI-60 one-dose screen, COLO 205. The conditions noted are these: Homo sapiens; COLO 205, colon cancer; single dose 10 μM; read-out: Growth inhibition %. The procedure:
as §1, §2

The next assay deals with HCC-2998. Put plainly: NCI-60 one-dose screen, HCC-2998. The conditions noted are these: Homo sapiens; HCC-2998, colon cancer; single dose 10 μM; read-out: Growth inhibition %. How it is done:
as §1, §2

The test system of the next assay is HCT-116. Put plainly: NCI-60 one-dose screen, HCT-116. The conditions noted are these: Homo sapiens; HCT-116, colon cancer; single dose 10 μM; read-out: Growth inhibition %. How it is done:
as §1, §2

The subject of the next assay is SF-539. Briefly: NCI-60 one-dose screen, SF-539. The conditions noted are these: Homo sapiens; SF-539, CNS cancer; single dose 10 μM; read-out: Growth inhibition %. The procedure:
as §1, §2

The test system of another assay is SNB-19. Put plainly: NCI-60 one-dose screen, SNB-19. The settings on record: Homo sapiens; SNB-19, CNS cancer; single dose 10 μM; read-out: Growth inhibition %. The procedure: as §1, §2
In a further assay the test system is M14. Put plainly: NCI-60 one-dose screen, M14. The settings on record: Homo sapiens; M14, melanoma; single dose 10 μM; read-out: Growth inhibition %. How it is done: as §1, §2
Another assay deals with MDA-MB-435. Put plainly: NCI-60 one-dose screen, MDA-MB-435. The conditions noted are these: Homo sapiens; MDA-MB-435, melanoma; single dose 10 μM; read-out: Growth inhibition %. The procedure: as §1, §2
The next assay deals with SK-MEL-2. Briefly: NCI-60 one-dose screen, SK-MEL-2. The conditions noted are these: Homo sapiens; SK-MEL-2, melanoma; single dose 10 μM; read-out: Growth inhibition %. The procedure:
as §1, §2

The test system of the next assay is SK-MEL-28. Put plainly: NCI-60 one-dose screen, SK-MEL-28. The settings on record: Homo sapiens; SK-MEL-28, melanoma; single dose 10 μM; read-out: Growth inhibition %. The procedure: as §1, §2
In the next assay the test system is IGROV1. Briefly: NCI-60 one-dose screen, IGROV1. The settings on record: Homo sapiens, IGROV-1; IGROV1, ovarian cancer; single dose 10 μM; read-out: Growth inhibition %. The procedure: as §1, §2
For a further assay, the system named is OVCAR-4. Briefly: NCI-60 one-dose screen, OVCAR-4. The conditions noted are these: Homo sapiens; OVCAR-4, ovarian cancer; single dose 10 μM; read-out: Growth inhibition %. How it is done:
as §1, §2

The next assay has as its system OVCAR-5. Briefly: NCI-60 one-dose screen, OVCAR-5. The settings on record: Homo sapiens; OVCAR-5, ovarian cancer; single dose 10 μM; read-out: Growth inhibition %. The procedure:
as §1, §2

A further assay relates to OVCAR-8. Briefly: NCI-60 one-dose screen, OVCAR-8. The settings on record: Homo sapiens; OVCAR-8, ovarian cancer; single dose 10 μM; read-out: Growth inhibition %. How it is done:
as §1, §2

The test system of the next assay is A498. Put plainly: NCI-60 one-dose screen, A498. The settings on record: Homo sapiens; A498, renal cancer; single dose 10 μM; read-out: Growth inhibition %. How it is done: as §1, §2
The next assay concerns CAKI-1. Put plainly: NCI-60 one-dose screen, CAKI-1. The conditions noted are these: Homo sapiens; CAKI-1, renal cancer; single dose 10 μM; read-out: Growth inhibition %. The procedure: as §1, §2
A further assay deals with RXF 393. Briefly: NCI-60 one-dose screen, RXF 393. The conditions noted are these: Homo sapiens; RXF 393, renal cancer; single dose 10 μM; read-out: Growth inhibition %. The procedure: as §1, §2
For a further assay, the system named is SN12C. Briefly: NCI-60 one-dose screen, SN12C. The settings on record: Homo sapiens, renal cancer, single dose 10 μM, read-out: Growth inhibition %. The procedure:
as §1, §2

Another assay relates to MDA-MB-231-ATCC. Briefly: NCI-60 one-dose screen, MDA-MB-231-ATCC. The conditions noted are these: Homo sapiens, breast cancer, single dose 10 μM, read-out: Growth inhibition %. How it is done:
as §1, §2

The next assay deals with T-47D. Briefly: NCI-60 one-dose screen, T-47D. The conditions noted are these: Homo sapiens, T47D, breast cancer, single dose 10 μM, read-out: Growth inhibition %. The procedure:
as §1, §2

Regarding `O=C(NNC(=O)N1c2ccccc2C=Cc2ccccc21)c1ccccc1` [Compound 4a, N′-Benzoyl-5H-dibenzo[b,f]azepine-5-carbohydrazide], the inhibition at 10 µM in the assay with HL-60(TB), in the assay with A549-ATCC, in the assay with NCI-H226, in the assay on NCI-H23, with NCI-H460 and in the assay with COLO 205 was under 10% throughout. Also, the inhibition at 10 µM in the assay with HCC-2998, in the assay on HCT-116, in the assay on SF-539, with SNB-19, in the assay on M14 and in the assay on MDA-MB-435 was under 10% in each case. In addition, the inhibition at 10 µM in the assay on SK-MEL-2, in the assay on SK-MEL-28, in the assay with IGROV1, in the assay on OVCAR-4, with OVCAR-5 and in the assay on OVCAR-8 was under 10% throughout. Also, the inhibition at 10 µM with A498, with CAKI-1, in the assay with RXF 393, with SN12C, with MDA-MB-231-ATCC and in the assay with T-47D was under 10% each time.
Consider `O=C(NNC(=O)N1c2ccccc2C=Cc2ccccc21)c1ccc(Br)cc1` [Compound 4b, N′-(4-Bromobenzoyl)-5H-dibenzo[b,f]azepine-5-carbohydrazide], for which the inhibition at 10 µM in the assay with HL-60(TB) is under 10%; in the assay on A549-ATCC, 18.5%; in the assay with NCI-H226, under 10%; in the assay with NCI-H23 it was under 10%; with NCI-H460, under 10%; in the assay on COLO 205 it was under 10%. In addition, the inhibition at 10 µM in the assay with HCC-2998, in the assay with HCT-116, in the assay on SF-539, in the assay with SNB-19, in the assay on M14 and in the assay with MDA-MB-435 was under 10% each time. Also, the inhibition at 10 µM in the assay with SK-MEL-2, in the assay with SK-MEL-28, in the assay with IGROV1, in the assay with OVCAR-4, in the assay on OVCAR-5 and in the assay on OVCAR-8 was under 10% throughout. The inhibition at 10 µM with A498, in the assay with CAKI-1, in the assay on RXF 393, in the assay with SN12C, in the assay on MDA-MB-231-ATCC and with T-47D was under 10% throughout.
As to `O=C(NNC(=O)N1c2ccccc2C=Cc2ccccc21)c1ccc(Cl)cc1` [Compound 4c, N′-(4-Chlorobenzoyl)-5H-dibenzo[b,f]azepine-5-carbohydrazide], the inhibition at 10 µM with HL-60(TB), in the assay with A549-ATCC, in the assay with NCI-H226, in the assay with NCI-H23, in the assay with NCI-H460 and with COLO 205 was under 10% each time. The inhibition at 10 µM in the assay on HCC-2998, with HCT-116, with SF-539, in the assay with SNB-19, with M14 and in the assay on MDA-MB-435 was under 10% each time. Moreover, the inhibition at 10 µM with SK-MEL-2, in the assay on SK-MEL-28, with IGROV1, in the assay with OVCAR-4, in the assay with OVCAR-5 and in the assay with OVCAR-8 was under 10% each time. For the same compound, the inhibition at 10 µM in the assay with A498, in the assay with CAKI-1, in the assay on RXF 393, in the assay with SN12C, in the assay with MDA-MB-231-ATCC and in the assay on T-47D was under 10% each time.
On to `Cc1ccc(C(=O)NNC(=O)N2c3ccccc3C=Cc3ccccc32)cc1` [Compound 4d, N′-(4-Methylbenzoyl)-5H-dibenzo[b,f]azepine-5-carbohydrazide], for which the inhibition at 10 µM in the assay with HL-60(TB), in the assay on A549-ATCC, in the assay on NCI-H226, in the assay with NCI-H23, in the assay on NCI-H460 and in the assay with COLO 205 was under 10% in each case. In addition, the inhibition at 10 µM in the assay on HCC-2998, in the assay with HCT-116, with SF-539, in the assay on SNB-19, in the assay with M14 and in the assay on MDA-MB-435 was under 10% throughout. The inhibition at 10 µM in the assay with SK-MEL-2, in the assay with SK-MEL-28, in the assay with IGROV1, in the assay on OVCAR-4, in the assay on OVCAR-5 and with OVCAR-8 was under 10% throughout. Further, the inhibition at 10 µM with A498, in the assay on CAKI-1, in the assay with RXF 393, in the assay with SN12C, in the assay on MDA-MB-231-ATCC and with T-47D was under 10% throughout.
Take `O=C(NNC(=O)N1c2ccccc2C=Cc2ccccc21)c1ccc([N+](=O)[O-])cc1` [Compound 4e, N′-(4-Nitrobenzoyl)-5H-dibenzo[b,f]azepine-5-carbohydrazide]: the inhibition at 10 µM with HL-60(TB), with A549-ATCC, in the assay with NCI-H226, with NCI-H23, with NCI-H460 and in the assay with COLO 205 was under 10% each time. For the same compound, the inhibition at 10 µM with HCC-2998, in the assay on HCT-116, in the assay with SF-539, in the assay with SNB-19, with M14 and in the assay on MDA-MB-435 was under 10% in each case. In addition, the inhibition at 10 µM with SK-MEL-2, with SK-MEL-28, in the assay with IGROV1, with OVCAR-4, in the assay on OVCAR-5 and in the assay with OVCAR-8 was under 10% each time. Further, the inhibition at 10 µM with A498, in the assay with CAKI-1, in the assay with RXF 393, with SN12C, in the assay on MDA-MB-231-ATCC and in the assay with T-47D was under 10% throughout.
